SMILES strings stand for the structures.

The target in this assay is HIV-1 pNL4-3 integrase (Human immunodeficiency virus type 1 group M subtype B (isolate NY5) (HIV-1), UniProt P12497). Kind of assay: Determination of enzyme (HIV integrase) inhibitory activity. In kind it is biochemical. Particulars: calculated from inhibition rate (fluorescence). The method, boiled down:
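Full-length pNL4-3 integrase from E. coli (0.75 μM stock) reacted 60 min at 37° C with compound and biotinylated donor DNA bound to streptavidin plates, in MOPS buffer with 5 mM MgCl2 and 10% DMSO. Digoxigenin-labelled target DNA (25 nM stock) then added for 20 min; strand transfer read by peroxidase anti-digoxigenin fluorescence (Ex 325/Em 420 nm).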
For `COCC1(C)CN(C(C)C)C(=O)c2c(O)c(=O)c(-c3ncc(Cc4ccc(F)cc4)s3)cn21` (stereo not shown) [Example 103], the IC50 was 0.018 µM.

Take `CCNC(=O)[C@]1(C)CN(C(C)C)C(=O)c2c(O)c(=O)c(-c3nnc(Cc4ccc(F)cc4F)s3)cn21` [Example 174]: the IC50 is 0.014 µM.

Consider `COC[C@H]1CN(C(C)C)C(=O)c2c(O)c(=O)c(-c3nnc(Cc4ccc(F)c(F)c4)s3)cn21` [Example 144], for which the IC50 is 0.0077 µM.

For the compound `CCN1C[C@@H](COCCOC)n2cc(-c3nnc(Cc4ccc(F)cc4F)s3)c(=O)c(O)c2C1=O` [Example 127], the IC50 was 0.014 µM.

With `O=C1c2c(O)c(=O)c(-c3nnc(Cc4ccc(F)cc4)s3)cn2CC(CO)N1C1CC1` (stereo not shown) [Example 115], the IC50 was 0.012 µM.

Turning to `COCC1(C)CN(C(C)C)C(=O)c2c(O)c(=O)c(-c3ncc(Cc4ccc(F)cc4F)s3)cn21` (stereo not shown) [Example 121], the IC50 was 0.016 µM.

As to `COCCOC[C@H]1Cn2cc(-c3ncc(Cc4ccc(F)cc4F)s3)c(=O)c(O)c2C(=O)N1C(C)C` [Example 59], the IC50 is 0.012 µM.

In the case of `CNC(=O)[C@@]1(C)CN(C(C)C)C(=O)c2c(O)c(=O)c(-c3nnc(Cc4ccc(F)cc4F)s3)cn21` [Example 191], the IC50 is 0.012 µM.

Take `C[C@@H](C1CC1)N1C[C@](C)(C(=O)N(C)C)n2cc(-c3ncc(Cc4ccc(F)cc4)s3)c(=O)c(O)c2C1=O` [Example 275]: the IC50 was 0.014 µM.

Regarding `CC(C)N1C(=O)c2c(O)c(=O)c(-c3nnc(Cc4ccc(F)cc4)s3)cn2CC12CC2` [Example 176], the IC50 is 0.0085 µM.

Turning to `CCN(C)C(=O)C1(C)CN(C)C(=O)c2c(O)c(=O)c(-c3ncc(Cc4ccc(F)cc4F)s3)cn21` (stereo not shown) [Example 161], the IC50 is 0.0078 µM.

On to `COCCOC[C@@]1(C(=O)N(C)C)CN(C(C)C)C(=O)c2c(O)c(=O)c(-c3nnc(Cc4ccc(F)cc4)s3)cn21` [Example 391], for which the IC50 is 0.024 µM.

With `O=C1c2c(O)c(=O)c(-c3nnc(Cc4ccc(F)cc4F)s3)cn2C2(CCOCC2)CN1C1CC1` [Example 30], the IC50 is 0.009 µM.

Turning to `CCC(C)(C)C(=O)N(C)C[C@@H]1Cn2cc(-c3nnc(Cc4ccc(F)cc4)s3)c(=O)c(O)c2C(=O)N1C(C)C` [Example 183], the IC50 is 0.01 µM.

For `CCNC(=O)[C@]1(C)Cn2cc(-c3nnc(Cc4ccc(F)cc4)s3)c(=O)c(O)c2C(=O)N1C(C)C` [Example 307], the IC50 was 0.011 µM.

Regarding `CC(C)N1CC(C#N)n2cc(-c3ncc(Cc4ccc(F)cc4F)s3)c(=O)c(O)c2C1=O` (stereo not shown) [Example 79], the IC50 was 0.0064 µM.

Turning to `COC[C@H]1CN(C2CCC2)C(=O)c2c(O)c(=O)c(-c3nnc(Cc4ccc(F)cc4)s3)cn21` [Example 92], the IC50 is 0.0087 µM.

For `COCCOC[C@H]1CN(CC2CC2)C(=O)c2c(O)c(=O)c(-c3nnc(Cc4ccc(F)cc4F)s3)cn21` [Example 119], the IC50 is 0.011 µM.

On to `CCN1C(=O)c2c(O)c(=O)c(-c3ncc(Cc4ccc(F)cc4)s3)cn2[C@@H](C)[C@H]1COC` [Example 260], for which the IC50 is 0.012 µM.

Consider `CCN1C[C@@H](COC)n2cc(-c3nnc(Cc4ccc(F)cc4F)s3)c(=O)c(O)c2C1=O` [Example 89], for which the IC50 was 0.008 µM.

`COCCOC[C@H]1CN(CC(C)C)C(=O)c2c(O)c(=O)c(-c3ncc(Cc4ccc(F)cc4F)s3)cn21` [Example 57]: the IC50 was 0.011 µM.

For the compound `CCC(=O)N(C)C[C@@]1(C)CN(C(C)C)C(=O)c2c(O)c(=O)c(-c3nnc(Cc4ccc(F)cc4F)s3)cn21` [Example 207], the IC50 was 0.024 µM.

With `CC(C)N1C[C@@](C)(C(=O)N2CCC2)n2cc(-c3ncc(Cc4ccc(F)cc4)s3)c(=O)c(O)c2C1=O` [Example 223], the concentration for half-maximal inhibition (IC50) was 0.012 µM.

Regarding `COC[C@@H]1[C@@H](C)N(C(C)C)C(=O)c2c(O)c(=O)c(-c3nnc(Cc4ccc(F)cc4)s3)cn21` [Example 288], the IC50 was 0.0088 µM.

Turning to `CC(C)N1C(=O)c2c(O)c(=O)c(-c3nnc(Cc4ccc(F)cc4F)s3)cn2CC1CCO` (stereo not shown) [Example 90], the IC50 was 0.0067 µM.

For the compound `COC[C@H]1CN(C(C)C)C(=O)c2c(O)c(=O)c(-c3nnc(Cc4ccc(F)c(Cl)c4)s3)cn21` [Example 243], the IC50 is 0.0076 µM.

For `COC[C@@H]1[C@H](C)n2cc(-c3nnc(Cc4ccc(F)cc4)s3)c(=O)c(O)c2C(=O)N1C(C)C` [Example 232], the IC50 is 0.015 µM.

In the case of `COCCOC[C@H]1Cn2cc(-c3nnc(Cc4ccc(F)cc4F)s3)c(=O)c(O)c2C(=O)N1C(C)C` [Example 60], the IC50 is 0.017 µM.

With `C[C@H](C1CC1)N1C[C@](C)(C(=O)N(C)C)n2cc(-c3ncc(Cc4ccc(F)cc4)s3)c(=O)c(O)c2C1=O` [Example 282], the IC50 is 0.015 µM.

Turning to `CO[C@@H](C)[C@H]1CN(C(C)C)C(=O)c2c(O)c(=O)c(-c3ncc(Cc4ccc(F)cc4)s3)cn21` [Example 388], the IC50 was 0.0086 µM.

On to `CCN1C(=O)c2c(O)c(=O)c(-c3nnc(Cc4ccc(F)cc4)s3)cn2C[C@H]1C` [Example 328], for which the IC50 is 0.0071 µM.

`CC(C)N1C[C@@H](C(C)(C)C)n2cc(-c3nnc(Cc4ccc(F)cc4)s3)c(=O)c(O)c2C1=O` [Example 192]: the IC50 is 0.015 µM.

Take `COCC1Cn2cc(-c3nnc(Cc4ccc(F)cc4F)s3)c(=O)c(O)c2C(=O)N1C(C)C` (stereo not shown) [Example 42]: the IC50 was 0.0034 µM.

For the compound `CC(C)CNC(=O)CC1CN(C(C)C)C(=O)c2c(O)c(=O)c(-c3ncc(Cc4ccc(F)cc4F)s3)cn21` (stereo not shown) [Example 40], the IC50 was 0.013 µM.

Turning to `CC(C)CNC(=O)[C@@]1(C)CN(C(C)C)C(=O)c2c(O)c(=O)c(-c3nnc(Cc4ccc(F)cc4)s3)cn21` [Example 186], the IC50 is 0.018 µM.

Consider `CCOCCOC[C@H]1CN(C(C)C)C(=O)c2c(O)c(=O)c(-c3nnc(Cc4ccc(F)cc4F)s3)cn21` [Example 143], for which the IC50 is 0.0069 µM.

Take `C[C@H](C1CC1)N1C[C@](C)(C(=O)N2CCC2)n2cc(-c3ncc(Cc4ccc(F)cc4)s3)c(=O)c(O)c2C1=O` [Example 280]: the IC50 was 0.016 µM.

In the case of `COC[C@H]1CN(C(C)C)C(=O)c2c(O)c(=O)c(-c3nnc(Cc4ccc(F)cc4Br)s3)cn21` [Example 230], the IC50 was 0.069 µM.

`CCN1C[C@@](C)(C(=O)N2CCC2)n2cc(-c3ncc(Cc4ccc(F)cc4)s3)c(=O)c(O)c2C1=O` [Example 271]: the IC50 is 0.011 µM.

`CC(C)N1C[C@H](CS(=O)(=O)C(C)(C)C)n2cc(-c3nnc(Cc4ccc(F)cc4)s3)c(=O)c(O)c2C1=O` [Example 360]: the IC50 is 0.011 µM.

Turning to `CCNC(=O)[C@@]1(C)CN([C@@H](C)C2CC2)C(=O)c2c(O)c(=O)c(-c3ncc(Cc4ccc(F)cc4)s3)cn21` [Example 276], the IC50 is 0.016 µM.

As to `CC(C)N1C(=O)c2c(O)c(=O)c(-c3nnc(Cc4ccc(F)cc4F)s3)cn2CC1C(=O)O` (stereo not shown) [Example 50], the IC50 is 0.0064 µM.

For `CO[C@H](C)[C@@H]1CN(C(C)C)C(=O)c2c(O)c(=O)c(-c3ncc(Cc4ccc(F)cc4)s3)cn21` [Example 387], the IC50 was 0.011 µM.

On to `CC(C)N1C(=O)c2c(O)c(=O)c(-c3nnc(Cc4ccc(F)cc4)s3)cn2C[C@@]1(C)C(=O)O` [Example 312], for which the IC50 is 0.012 µM.

For `CC(C)N1C(=O)c2c(O)c(=O)c(-c3nnc(Cc4ccc(F)cc4)s3)cn2C[C@@]1(C)C(=O)N1CCCC1` [Example 306], the IC50 was 0.01 µM.

As to `C[C@@H]1Cn2cc(-c3nnc(Cc4ccc(F)cc4)s3)c(=O)c(O)c2C(=O)N1CC1CC1` [Example 279], the IC50 is 0.0063 µM.

As a reminder, the IC50 is the concentration that gives 50% inhibition.

Source of the values: patent US10065950B2, “Substituted thiazoles as HIV integrase inhibitors” (Japan Tobacco Inc., priority 2010, dated 2018).
